Experimental data as given in ChEMBL document CHEMBL1201862, “PubChem BioAssay data set” (2004).
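A five-concentration, 48-hour dose response in 96-well plates underlies each endpoint, interpolated linearly between surrounding concentrations. GI50: concentration for 50% inhibition of growth.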 Active and inactive are the calls of the source. Cut-off read from the data, not from the text of the source: active = GI50 up to about 1.1 µM and inactive = higher.

How the values were obtained:
Assay in all cases: DTP human tumour cell line panel, 48 h
SF-268 = system: SF-268
CAKI-1 = system: CAKI-1
MDA-MB-435 = system: MDA-MB-435
SK-OV-3 = system: SK-OV-3
TK-10 = system: TK-10
SN12C = system: SN12C
SW-620 = system: SW-620
RPMI-8226 = system: RPMI-8226
OVCAR-8 = system: OVCAR-8
SK-MEL-5 = system: SK-MEL-5
A498 = system: A498
A549 = system: A549
NCI-H226 = system: NCI-H226
Malme-3M = system: Malme-3M
MOLT-4 = system: MOLT-4
RXF 393 = system: RXF 393
OVCAR-5 = system: OVCAR-5
DU-145 = system: DU-145
M14 = system: M14
U-251 = system: U-251

Measured: GI50

O=C(Nc1c(C(F)(F)F)cc(-c2ccccc2)[nH]c1=O)N1CCOCC1
inactive: SF-268 > 100 µM | CAKI-1 > 100 µM | MDA-MB-435 > 100 µM | SK-OV-3 > 100 µM | TK-10 > 100 µM | SN12C > 100 µM | SW-620 > 100 µM | RPMI-8226 26.9 µM | OVCAR-8 > 100 µM | SK-MEL-5 38.1 µM | A498 > 100 µM | A549 79.1 µM | NCI-H226 > 100 µM | Malme-3M > 100 µM | MOLT-4 > 100 µM | RXF 393 > 100 µM | OVCAR-5 > 100 µM | DU-145 > 100 µM | M14 > 100 µM | U-251 78.5 µM

C=C(C)CNCC(=C)C.Oc1c(Cl)c(Cl)c(Cl)c(Cl)c1Cl
inactive: SF-268 33.9 µM | CAKI-1 21.4 µM | MDA-MB-435 23.7 µM | SK-OV-3 43.4 µM | TK-10 > 100 µM | SN12C 20.2 µM | SW-620 31.1 µM | RPMI-8226 20.8 µM | OVCAR-8 31.9 µM | SK-MEL-5 16.4 µM | A498 20.4 µM | A549 27.9 µM | NCI-H226 13.9 µM | Malme-3M 17.4 µM | MOLT-4 20.1 µM | RXF 393 20 µM | OVCAR-5 17.1 µM | DU-145 15.2 µM | M14 26.7 µM | U-251 17.9 µM

N=C(N)c1ccc(/N=N\c2c(O)ccc3c2[nH]c2ccccc23)cc1
inactive: SF-268 19.5 µM | CAKI-1 > 50.8 µM | MDA-MB-435 3.39 µM | SK-OV-3 25.2 µM | TK-10 45.5 µM | SN12C 16.4 µM | SW-620 2.32 µM | RPMI-8226 2.19 µM | OVCAR-8 2.46 µM | SK-MEL-5 37.8 µM | A498 77.3 µM | A549 2.34 µM | NCI-H226 40.5 µM | Malme-3M > 47.3 µM | MOLT-4 2.23 µM | RXF 393 53.1 µM | OVCAR-5 41.5 µM | DU-145 34.6 µM | M14 36.1 µM | U-251 1.95 µM

CC(C)(C)OC(=O)[C@@H]1CCC(=S)N1Cc1ccccc1
inactive: CAKI-1 > 100 µM | MDA-MB-435 > 100 µM | SK-OV-3 > 100 µM | TK-10 > 100 µM | SN12C > 100 µM | SW-620 > 100 µM | RPMI-8226 > 100 µM | OVCAR-8 > 100 µM | SK-MEL-5 47.4 µM | A498 > 100 µM | A549 > 100 µM | NCI-H226 60.1 µM | Malme-3M > 100 µM | MOLT-4 93.1 µM | RXF 393 > 100 µM | OVCAR-5 > 100 µM | DU-145 > 100 µM | M14 > 100 µM | U-251 > 100 µM

C#CCNCC(=O)O
inactive: SF-268 > 100 µM | CAKI-1 > 100 µM | MDA-MB-435 > 100 µM | SK-OV-3 > 100 µM | TK-10 > 100 µM | SW-620 > 100 µM | RPMI-8226 > 100 µM | OVCAR-8 > 100 µM | SK-MEL-5 > 100 µM | A498 > 100 µM | A549 > 100 µM | NCI-H226 > 100 µM | Malme-3M > 100 µM | MOLT-4 > 100 µM | RXF 393 > 100 µM | OVCAR-5 > 100 µM | DU-145 > 100 µM | M14 > 100 µM | U-251 > 100 µM

Cc1ccc(C(=O)/C=C2\Nc3ccccc3NC2=O)cc1
inactive: SF-268 5.96 µM | CAKI-1 2.44 µM | MDA-MB-435 10.9 µM | SK-OV-3 2.19 µM | TK-10 2.1 µM | SN12C 5.58 µM | RPMI-8226 11.1 µM | OVCAR-8 3.08 µM | SK-MEL-5 10.4 µM | A498 20.5 µM | A549 4.94 µM | NCI-H226 1.65 µM | Malme-3M 2.48 µM | MOLT-4 > 100 µM | RXF 393 2.42 µM | OVCAR-5 29.4 µM | DU-145 4.69 µM | M14 9.27 µM | U-251 8.13 µM
